In brackets after ≈: the same amount, converted by molar mass.
Columns and labels:
Type in all cases: cell-based
Bakterien = assay: antibacterial activity of synthetic product compared with natural reutericyclin; settings: relative to natural reutericyclin
Text: (§1) Das Wirkungsspektrum von Reutericyclin wurde mit Hilfe des Naturstoffes untersucht, der aus Lactobacillus reuteri LTH 2584 wie oben beschrieben isoliert wurde. Die antimikrobielle Aktivität wurde gegenüber einer Vielzahl unterschiedlicher Bakterien getestet. Hierfür wurden Verdünnungstest auf Mikrotiterplatten durchgeführt. Kulturen der verschiedenen Bakterien wurden mit Verdünnungen der erfindungsgemässen Verbindung behandelt und die Konzentration bestimmt, die eine Hemmung des Wachstums der Bakterien im Vergleich mit Kontrollen beobachten ließ.
Dies liegt vermutlich daran, daß 6 im Gegensatz zum natürlichen Reutericyclin als Razemat vorliegt.

[1] = system: Antibiotika-resistente klinische Isolate (Enterococcus Faecalis); assay: microtitre plate dilution test, antibiotic-resistant clinical isolates; settings: no cross-resistance found
Text: as §1
(§2) Einige humanpathogene Keime, wie beispielsweise Enterococcus Faecalis (DSM20409) erwies sich sogar noch als deutlich empfindlicher gegenüber Reutericyclin. Hier bewirkte eine Konzentration von etwa 0,05 mg/l eine Hemmung des Wachstums der Bakterien. […] Es war also keine Kreuzresistenz festzustellen.

Hefen = assay: microtitre plate dilution test, growth inhibition; settings: yeasts; at the tested concentrations
L. sakei (LTH673) = assay: microtitre plate dilution test, growth inhibition; settings: compared with L. sanfranciscensis (MIC 0,1 +/-0,05 mg/l)
Text: as §1
(§3) Diese sogenannte minimale inhibitorische Konzentration wurde für das Bakterium Lactobacillus sanfranciscensis (ATCC27651) mit 0,1 +/-0,05 mg/l bestimmt.

L. curvatus (LTH1174) = assay: microtitre plate dilution test, growth inhibition; settings: compared with L. sanfranciscensis (MIC 0,1 +/-0,05 mg/l)
Text: as §1, §3

[2] = system: Listeria ivanovii (DSM20750); assay: microtitre plate dilution test, growth inhibition; settings: compared with Lactobacillus sanfranciscensis
Text: as §1

[3] = system: Staphylocokus aureus (SG511); assay: microtitre plate dilution test, growth inhibition; settings: compared with Lactobacillus sanfranciscensis
Text: as §1

Escherichia coli = assay: microtitre plate dilution test, growth inhibition; settings: Gram-negative bacteria; at the tested concentrations
Text: as §1

[4] = system: Enterococcus Faecalis (DSM20409); assay: microtitre plate dilution test, growth inhibition; settings: natural product, read-out: Konzentration, die eine Hemmung des Wachstums der Bakterien bewirkte
Text: as §1, §2

[5] = system: Lactobacillus sanfranciscensis (ATCC27651); assay: microtitre plate dilution test, minimal inhibitory concentration; settings: natural product isolated from Lactobacillus reuteri LTH 2584; growth inhibition versus controls; read-out: minimale inhibitorische Konzentration
Text: as §1, §3

SMILES	Menge für gleiche Ergebnisse wie eine Menge des natürlichen Reutericyclins (Bakterien; as a rule)	antibakterielle Wirkung (Bakterien)	Empfindlichkeit gegenüber Reutericyclin [1]	Empfindlichkeit gegenüber Reutericyclin (Hefen)	Empfindlichkeit gegenüber Reutericyclin (L. sakei (LTH673))	Empfindlichkeit gegenüber Reutericyclin (L. curvatus (LTH1174))	Empfindlichkeit gegenüber Reutericyclin [2]	Empfindlichkeit gegenüber Reutericyclin [3]	Empfindlichkeit gegenüber Reutericyclin (Escherichia coli)	MIC [4]	MIC [5]
CCCCCCC/C=C/C(=O)N1C(O)=C(C(C)=O)C(=O)C1CC(C)C (racemic) [compound 6, N-trans-2-Decenoyl-3-acetyl-5-iso-butylpyrrolidin-2,4-dion]	doppelte Mengen	etwas schwächer									
CCCCCCC/C=C/C(=O)N1C(O)=C(C(C)=O)C(=O)[C@H]1CC(C)C [Reutericyclin, 5R-1-(2-trans-Decenoyl)-3-acetyl-5-isobutyl-delta2-pyrrolin4-on]			ebenfalls eine Empfindlichkeit	nicht empfindlich	sehr ähnliche Empfindlichkeiten	sehr ähnliche Empfindlichkeiten	in einer entsprechenden Größenordnung wie Lactobacillus sanfranciscensis	in einer entsprechenden Größenordnung wie Lactobacillus sanfranciscensis	nicht empfindlich	~0.05 µg/mL (≈ 0.143 µM)	0.1 µg/mL (≈ 0.286 µM)

From EP1116715A1, “Tetramic acid derivatives useful in medicines and foodstuffs” (priority 2000, dated 2001)
